Experimental data from patent US8063065B2, “Azaindazole compounds as CCR1 receptor antagonists” (Boehringer Ingelheim International GmbH, priority 2008, dated 2011).

What follows are compounds tested against T1, CCR1 (Homo sapiens, UniProt P32246) (assay: Method B: calcium flux in CCR1 transfected cells (Calcium 4 dye, […] FDSS6000), block of the CCR1/MIP-1α interaction). Details: Method B: Calcium 4 dye, MIP-1alpha at EC80.
T1 sequence (P32246 1-355): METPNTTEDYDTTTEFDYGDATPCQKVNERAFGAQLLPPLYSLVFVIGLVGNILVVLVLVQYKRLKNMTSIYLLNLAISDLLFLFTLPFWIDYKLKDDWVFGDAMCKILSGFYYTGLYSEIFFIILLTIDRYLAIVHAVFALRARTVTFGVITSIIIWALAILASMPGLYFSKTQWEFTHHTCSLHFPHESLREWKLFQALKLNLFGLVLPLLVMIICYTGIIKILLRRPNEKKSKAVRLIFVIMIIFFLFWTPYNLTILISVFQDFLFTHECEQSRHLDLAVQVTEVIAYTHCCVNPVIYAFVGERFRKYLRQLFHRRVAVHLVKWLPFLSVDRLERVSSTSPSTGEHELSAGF
Format: cell-based
Method in brief: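 Calcium flux on an FDSS6000 was triggered by MIP-1α at its EC80 in stably CCR1/G-alpha-16-expressing non-adherent cells. Before this, Calcium 4-loaded cells were preincubated with compound in HBSS, 20 mM HEPES pH 7.4, 1% DMSO: 30 min at 37 C plus 30 min at room temperature. Ten 4-fold doses began at 3,000 nM, with ±MIP-1α DMSO wells as controls.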
Work on `CS(=O)(=O)c1cc([C@H](CC2COC(=O)O2)NC(=O)c2cncc3c2cnn3-c2ccc(F)cc2)ccn1` (stereo partly drawn) [1-(4-Fluorophenyl)-1H-pyrazolo[3,4-c]pyridine-4-carboxylic acid [(S)-1-(2-methanesulfonyl-pyridin-4-yl)-2-(2-oxo-1,3-dioxolan-4-yl)-ethyl]-amide] yielded an IC50 of 6 nM.
With `C=CC[C@H](NC(=O)c1cncc2c1cnn2-c1ccc(F)cc1)c1ccnc(S(C)(=O)=O)c1` [1-(4-Fluorophenyl)-1H-pyrazolo[3,4-c]pyridine-4-carboxylic acid [(S)-1-(2-methanesulfonyl-pyridin-4-yl)-but-3-enyl]-amide] the IC50 was 0.3 nM.
With `C[C@H](NC(=O)c1cncc2c1cnn2-c1ccc(F)cc1)c1csc(S(C)(=O)=O)n1` [1-(4-Fluorophenyl)-1H-pyrazolo[3,4-c]pyridine-4-carboxylic acid [(S)-1-(2-methanesulfonyl-thiazol-4-yl)-ethyl]-amide] the IC50 was 4 nM.
`CC[C@H](NC(=O)c1cncc2c1cnn2-c1ccc(F)cc1)c1csc(S(C)(=O)=O)n1` [1-(4-Fluorophenyl)-1H-pyrazolo[3,4-c]pyridine-4-carboxylic acid [(S)-1-(2-methanesulfonyl-thiazol-4-yl)-propyl]-amide] was tested, and the IC50 was 0.4 nM.
`C[C@H](NC(=O)c1cncc2c1cnn2-c1ccc(F)cc1)c1cnc(S(C)(=O)=O)s1` [1-(4-Fluorophenyl)-1H-pyrazolo[3,4-c]pyridine-4-carboxylic acid [(S)-1-(2-methanesulfonyl-thiazol-5-yl)-ethyl]-amide] gave an IC50 of 6 nM.
Work on `CC[C@H](NC(=O)c1cncc2c1cnn2-c1ccc(F)cc1)c1cnc(S(C)(=O)=O)s1` [1-(4-Fluorophenyl)-1H-pyrazolo[3,4-c]pyridine-4-carboxylic acid [(S)-1-(2-methanesulfonyl-thiazol-5-yl)-propyl]-amide] yielded an IC50 of 0.6 nM.
`CC[C@H](NC(=O)c1cncc2c1cnn2-c1ccc(F)cc1)c1ccnc(C)c1` [1-(4-Fluorophenyl)-1H-pyrazolo[3,4-c]pyridine-4-carboxylic acid [(S)-1-(2-methyl-pyridin-4-yl)-propyl]-amide] gave an IC50 of 0.9 nM.
Work on `CC[C@H](NC(=O)c1cncc2c1cnn2-c1ccc(F)cc1)c1ccnc(NC)c1` [1-(4-Fluorophenyl)-1H-pyrazolo[3,4-c]pyridine-4-carboxylic acid [(S)-1-(2-methylamino-pyridin-4-yl)-propyl]-amide] yielded an IC50 of 4 nM.
With `CSc1ncc([C@H](C)NC(=O)c2cncc3c2cnn3-c2ccc(F)cc2)o1` [1-(4-Fluorophenyl)-1H-pyrazolo[3,4-c]pyridine-4-carboxylic acid [(S)-1-(2-methylsulfanyl-oxazol-5-yl)-ethyl]-amide] the IC50 was 6 nM.
Work on `CC[C@H](NC(=O)c1cncc2c1cnn2-c1ccc(F)cc1)c1cnc(SC)o1` [1-(4-Fluorophenyl)-1H-pyrazolo[3,4-c]pyridine-4-carboxylic acid [(S)-1-(2-methylsulfanyl-oxazol-5-yl)-propyl]-amide] yielded an IC50 of 1 nM.
`CC[C@H](NC(=O)c1cncc2c1cnn2-c1ccc(F)cc1)c1ccnc(SC)c1` [1-(4-Fluorophenyl)-1H-pyrazolo[3,4-c]pyridine-4-carboxylic acid [(S)-1-(2-methylsulfanyl-pyridin-4-yl)-propyl]-amide] was tested, and the IC50 was 0.2 nM.
`CC[C@H](NC(=O)c1cncc2c1cnn2-c1ccc(F)cc1)c1ccnc(N2CCOCC2)c1` [1-(4-Fluorophenyl)-1H-pyrazolo[3,4-c]pyridine-4-carboxylic acid [(S)-1-(2-morpholin-4-yl-pyridin-4-yl)-propyl]-amide] showed an IC50 of 0.7 nM.
Compound `C[C@H](NC(=O)c1cncc2c1cnn2-c1ccc(F)cc1)c1ccnc(S(N)(=O)=O)c1` [1-(4-Fluorophenyl)-1H-pyrazolo[3,4-c]pyridine-4-carboxylic acid [(S)-1-(2-sulfamoyl-pyridin-4-yl)-ethyl]-amide] has an IC50 of 3 nM.
Compound `CC[C@H](NC(=O)c1cncc2c1cnn2-c1ccc(F)cc1)c1ccnc(S(N)(=O)=O)c1` [1-(4-Fluorophenyl)-1H-pyrazolo[3,4-c]pyridine-4-carboxylic acid [(S)-1-(2-sulfamoyl-pyridin-4-yl)-propyl]-amide] has an IC50 of 0.4 nM.
Work on `CC[C@H](NC(=O)c1cncc2c1cnn2-c1ccc(F)cc1)c1ccc(OC)c(Br)c1` [1-(4-Fluorophenyl)-1H-pyrazolo[3,4-c]pyridine-4-carboxylic acid [(S)-1-(3-bromo-4-methoxy-phenyl)-propyl]-amide] yielded an IC50 of 7 nM.
`CC[C@H](NC(=O)c1cncc2c1cnn2-c1ccc(F)cc1)c1cc(Br)no1` [1-(4-Fluorophenyl)-1H-pyrazolo[3,4-c]pyridine-4-carboxylic acid [(S)-1-(3-bromo-isoxazol-5-yl)-propyl]-amide] gave an IC50 of 28 nM.
In the case of `C[C@H](NC(=O)c1cncc2c1cnn2-c1ccc(F)cc1)c1cccc(Cl)c1` [1-(4-Fluorophenyl)-1H-pyrazolo[3,4-c]pyridine-4-carboxylic acid [(S)-1-(3-chlorophenyl)-ethyl]-amide], the IC50 is reported as 5 nM.
With `CC[C@H](NC(=O)c1cncc2c1cnn2-c1ccc(F)cc1)c1cccc(Cl)c1` [1-(4-Fluorophenyl)-1H-pyrazolo[3,4-c]pyridine-4-carboxylic acid [(S)-1-(3-chlorophenyl)-propyl]-amide] the IC50 was 0.4 nM.
`CC[C@H](NC(=O)c1cncc2c1cnn2-c1ccc(F)cc1)c1ccc(S(C)(=O)=O)c(O)c1` [1-(4-Fluorophenyl)-1H-pyrazolo[3,4-c]pyridine-4-carboxylic acid [(S)-1-(3-hydroxy-4-methanesulfonyl-phenyl)-propyl]-amide] showed an IC50 of 0.6 nM.
Compound `CC[C@H](NC(=O)c1cncc2c1cnn2-c1ccc(F)cc1)c1ccc(OC)c(S(C)(=O)=O)c1` [1-(4-Fluorophenyl)-1H-pyrazolo[3,4-c]pyridine-4-carboxylic acid [(S)-1-(3-methanesulfonyl-4-methoxy-phenyl)-propyl]-amide] has an IC50 of 6 nM.
Compound `C[C@H](NC(=O)c1cncc2c1cnn2-c1ccc(F)cc1)c1cccc(S(C)(=O)=O)c1` [1-(4-Fluorophenyl)-1H-pyrazolo[3,4-c]pyridine-4-carboxylic acid [(S)-1-(3-methanesulfonyl-phenyl)-ethyl]-amide] has an IC50 of 1 nM.
`CC[C@H](NC(=O)c1cncc2c1cnn2-c1ccc(F)cc1)c1cccc(S(C)(=O)=O)c1` [1-(4-Fluorophenyl)-1H-pyrazolo[3,4-c]pyridine-4-carboxylic acid [(S)-1-(3-methanesulfonyl-phenyl)-propyl]-amide] was tested, and the IC50 was 0.3 nM.
Compound `CC[C@H](NC(=O)c1cncc2c1cnn2-c1ccc(F)cc1)c1ccnc(N2CCC(F)(F)CC2)c1` [1-(4-Fluorophenyl)-1H-pyrazolo[3,4-c]pyridine-4-carboxylic acid [(S)-1-(4,4-difluoro-3,4,5,6-tetrahydro-2H-[1,2′]bipyridinyl-4′-yl)-propyl]-amide] has an IC50 of 3 nM.
`CC[C@H](NC(=O)c1cncc2c1cnn2-c1ccc(F)cc1)c1ccc(Br)c(OC)c1` [1-(4-Fluorophenyl)-1H-pyrazolo[3,4-c]pyridine-4-carboxylic acid [(S)-1-(4-bromo-3-methoxy-phenyl)-propyl]-amide] gave an IC50 of 0.5 nM.
Work on `C[C@H](NC(=O)c1cncc2c1cnn2-c1ccc(F)cc1)c1nc(Br)cs1` [1-(4-Fluorophenyl)-1H-pyrazolo[3,4-c]pyridine-4-carboxylic acid [(S)-1-(4-bromo-thiazol-2-yl)-ethyl]-amide] yielded an IC50 of 24 nM.
Compound `CC[C@H](NC(=O)c1cncc2c1cnn2-c1ccc(F)cc1)c1nc(Br)cs1` [1-(4-Fluorophenyl)-1H-pyrazolo[3,4-c]pyridine-4-carboxylic acid [(S)-1-(4-bromo-thiazol-2-yl)-propyl]-amide] has an IC50 of 0.8 nM.
`CC[C@H](NC(=O)c1cncc2c1cnn2-c1ccc(F)cc1)c1nc(C(N)=O)cs1` [1-(4-Fluorophenyl)-1H-pyrazolo[3,4-c]pyridine-4-carboxylic acid [(S)-1-(4-carbamoyl-thiazol-2-yl)-propyl]-amide] showed an IC50 of 8 nM.
With `CC[C@H](NC(=O)c1cncc2c1cnn2-c1ccc(F)cc1)c1ccc(O)c(S(C)(=O)=O)c1` [1-(4-Fluorophenyl)-1H-pyrazolo[3,4-c]pyridine-4-carboxylic acid [(S)-1-(4-hydroxy-3-methanesulfonyl-phenyl)-propyl]-amide] the IC50 was 0.2 nM.
`CC[C@H](NC(=O)c1cncc2c1cnn2-c1ccc(F)cc1)c1cc(S(C)(=O)=O)c[nH]1` [1-(4-Fluorophenyl)-1H-pyrazolo[3,4-c]pyridine-4-carboxylic acid [(S)-1-(4-methanesulfonyl-1H-pyrrol-2-yl)-propyl]-amide] showed an IC50 of 1 nM.
`CC[C@H](NC(=O)c1cncc2c1cnn2-c1ccc(F)cc1)c1ccnc(N2CCC(S(C)(=O)=O)CC2)c1` [1-(4-Fluorophenyl)-1H-pyrazolo[3,4-c]pyridine-4-carboxylic acid [(S)-1-(4-methanesulfonyl-3,4,5,6-tetrahydro-2H-[1,2′]bipyridinyl-4′-yl)-propyl]-amide] was tested, and the IC50 was 13 nM.
Compound `CC[C@H](NC(=O)c1cncc2c1cnn2-c1ccc(F)cc1)c1ccc(S(C)(=O)=O)c(OC)c1` [1-(4-Fluorophenyl)-1H-pyrazolo[3,4-c]pyridine-4-carboxylic acid [(S)-1-(4-methanesulfonyl-3-methoxy-phenyl)-propyl]-amide] has an IC50 of 0.2 nM.
For `CC[C@H](NC(=O)c1cncc2c1cnn2-c1ccc(F)cc1)c1cc(S(C)(=O)=O)co1` [1-(4-Fluorophenyl)-1H-pyrazolo[3,4-c]pyridine-4-carboxylic acid [(S)-1-(4-methanesulfonyl-furan-2-yl)-propyl]-amide], the IC50 was 6 nM.
